In paper PMC7316778 (Nature Communications, 2020):
Several values for one entry are separate records, joined by “and”; a condition that tells them apart may be missing. Identical values can stand only once. Like-named read-outs stand apart in the source and are kept apart here.

Legend:
Assay in all cases: SelectScreen kinase assay
[1] = molecular target: CDK14 (PFTK1)/cyclin Y (Homo sapiens, UniProt O94921)
Experimental: (§1) Selectivity profiling assays were performed by the Invitrogen SelectScreen™ Services. […] The concentration of ATP was selected to be equal to the KM, unless indicated otherwise.

[2] = molecular target: MYLK2 (skMLCK) (Homo sapiens, UniProt Q9H1R3); details: for Inhibition at 1 µM (%): MYLK2 (skMLCK), ZLYTE, ATP Km app
Experimental: as §1

[3] = molecular target: AMPK A2/B1/G1 (Homo sapiens, UniProt P54646)
Experimental: as §1

[4] = molecular target: T1, MLCK (MLCK2) (Homo sapiens, UniProt Q32MK0)
T1 sequence (Q32MK0 1-819): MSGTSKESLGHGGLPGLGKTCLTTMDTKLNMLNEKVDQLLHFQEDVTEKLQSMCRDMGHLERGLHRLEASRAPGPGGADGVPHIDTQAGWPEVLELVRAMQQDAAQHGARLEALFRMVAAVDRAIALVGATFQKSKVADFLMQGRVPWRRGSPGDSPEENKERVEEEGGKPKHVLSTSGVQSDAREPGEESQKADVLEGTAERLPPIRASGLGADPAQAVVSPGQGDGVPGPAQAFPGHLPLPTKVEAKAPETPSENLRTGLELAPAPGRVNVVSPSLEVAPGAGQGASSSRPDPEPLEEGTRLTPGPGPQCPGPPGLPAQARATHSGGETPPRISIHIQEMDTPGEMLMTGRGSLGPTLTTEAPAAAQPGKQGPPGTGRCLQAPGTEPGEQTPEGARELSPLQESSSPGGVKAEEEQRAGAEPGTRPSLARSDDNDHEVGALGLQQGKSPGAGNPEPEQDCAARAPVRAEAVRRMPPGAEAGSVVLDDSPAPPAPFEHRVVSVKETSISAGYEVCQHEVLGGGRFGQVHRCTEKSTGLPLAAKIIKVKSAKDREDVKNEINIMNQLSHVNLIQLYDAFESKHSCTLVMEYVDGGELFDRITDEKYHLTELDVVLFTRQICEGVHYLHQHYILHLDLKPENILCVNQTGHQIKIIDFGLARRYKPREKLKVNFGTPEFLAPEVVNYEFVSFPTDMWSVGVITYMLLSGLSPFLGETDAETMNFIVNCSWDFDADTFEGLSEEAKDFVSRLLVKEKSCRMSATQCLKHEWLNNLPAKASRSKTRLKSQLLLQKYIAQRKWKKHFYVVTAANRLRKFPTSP
Experimental: as §1

[5] = molecular target: NEK8 (Homo sapiens, UniProt Q86SG6)
Experimental: as §1

[6] = molecular target: TNIK (Homo sapiens, UniProt Q9UKE5)
Experimental: as §1

[7] = molecular target: ACVR2A (Homo sapiens, UniProt P27037)
Experimental: as §1

[8] = molecular target: T2, EPHB3 (Homo sapiens, UniProt P54753); details: for Inhibition at 1 µM (%): EPHB3, ZLYTE, ATP Km app
T2 sequence (P54753 34-998): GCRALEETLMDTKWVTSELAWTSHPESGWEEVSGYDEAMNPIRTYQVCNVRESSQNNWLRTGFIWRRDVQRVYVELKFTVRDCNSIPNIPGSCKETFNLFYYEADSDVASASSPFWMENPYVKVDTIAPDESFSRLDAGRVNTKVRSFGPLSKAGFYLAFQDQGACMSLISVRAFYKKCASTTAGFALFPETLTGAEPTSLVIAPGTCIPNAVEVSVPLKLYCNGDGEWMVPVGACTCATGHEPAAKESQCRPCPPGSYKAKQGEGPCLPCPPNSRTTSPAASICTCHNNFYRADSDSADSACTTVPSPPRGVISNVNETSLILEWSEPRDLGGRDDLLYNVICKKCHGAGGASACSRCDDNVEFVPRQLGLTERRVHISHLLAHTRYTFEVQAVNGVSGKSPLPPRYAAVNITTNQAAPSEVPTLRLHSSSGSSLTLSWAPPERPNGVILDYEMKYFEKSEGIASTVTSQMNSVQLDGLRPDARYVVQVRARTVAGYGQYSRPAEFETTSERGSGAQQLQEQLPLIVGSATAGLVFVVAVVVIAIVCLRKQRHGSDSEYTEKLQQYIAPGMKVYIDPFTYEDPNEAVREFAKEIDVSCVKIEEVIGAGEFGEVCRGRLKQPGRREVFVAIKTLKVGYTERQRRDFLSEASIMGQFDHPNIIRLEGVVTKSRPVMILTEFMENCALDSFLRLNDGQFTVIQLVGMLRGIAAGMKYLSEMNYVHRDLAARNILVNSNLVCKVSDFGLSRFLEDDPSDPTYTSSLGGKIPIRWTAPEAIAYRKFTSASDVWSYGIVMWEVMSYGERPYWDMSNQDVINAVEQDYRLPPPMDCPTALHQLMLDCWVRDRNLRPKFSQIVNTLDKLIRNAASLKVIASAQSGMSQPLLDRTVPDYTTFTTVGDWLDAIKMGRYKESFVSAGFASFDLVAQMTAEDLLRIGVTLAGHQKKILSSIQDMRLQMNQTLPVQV
Experimental: as §1

[9] = molecular target: PIK3CD/PIK3R1 (p110d/p85a) (Homo sapiens, UniProt O00329); details: 1 h, 1 μM WEL028, 1 h preincubation
Experimental: as §1

[10] = molecular target: PIM3 (Homo sapiens, UniProt Q86V86)
Experimental: as §1

[11] = molecular target: PRKCB1 (PKC beta I) (Homo sapiens, UniProt P05771)
Experimental: as §1

[12] = tested on: FLT4 (VEGFR3); details: IC50 on that kinase divided by IC50 on FES^S700C
Experimental: as §1

[13] = 1 h, 1 μM WEL028, 1 h preincubation

Chain of NEK8 (Q86SG6 whole entry): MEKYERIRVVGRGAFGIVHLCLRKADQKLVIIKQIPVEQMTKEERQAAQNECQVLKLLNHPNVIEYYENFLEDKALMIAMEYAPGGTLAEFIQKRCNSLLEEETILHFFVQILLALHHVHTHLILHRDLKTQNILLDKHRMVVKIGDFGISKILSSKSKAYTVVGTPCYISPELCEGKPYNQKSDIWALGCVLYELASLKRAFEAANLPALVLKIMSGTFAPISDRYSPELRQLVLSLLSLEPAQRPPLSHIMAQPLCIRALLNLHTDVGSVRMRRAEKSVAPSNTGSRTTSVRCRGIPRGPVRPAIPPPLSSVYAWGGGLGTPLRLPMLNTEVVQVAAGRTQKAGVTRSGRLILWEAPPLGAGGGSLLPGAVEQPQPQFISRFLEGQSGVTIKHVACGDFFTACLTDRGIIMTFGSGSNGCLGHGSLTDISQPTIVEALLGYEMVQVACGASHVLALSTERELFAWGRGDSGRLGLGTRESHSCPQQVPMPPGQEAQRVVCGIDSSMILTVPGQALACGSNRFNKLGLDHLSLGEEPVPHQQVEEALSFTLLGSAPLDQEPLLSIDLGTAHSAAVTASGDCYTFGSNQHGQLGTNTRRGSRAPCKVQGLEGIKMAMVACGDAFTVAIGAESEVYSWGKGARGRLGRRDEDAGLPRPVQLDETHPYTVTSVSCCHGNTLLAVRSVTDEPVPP
Chain of ACVR2A (P27037 20-513): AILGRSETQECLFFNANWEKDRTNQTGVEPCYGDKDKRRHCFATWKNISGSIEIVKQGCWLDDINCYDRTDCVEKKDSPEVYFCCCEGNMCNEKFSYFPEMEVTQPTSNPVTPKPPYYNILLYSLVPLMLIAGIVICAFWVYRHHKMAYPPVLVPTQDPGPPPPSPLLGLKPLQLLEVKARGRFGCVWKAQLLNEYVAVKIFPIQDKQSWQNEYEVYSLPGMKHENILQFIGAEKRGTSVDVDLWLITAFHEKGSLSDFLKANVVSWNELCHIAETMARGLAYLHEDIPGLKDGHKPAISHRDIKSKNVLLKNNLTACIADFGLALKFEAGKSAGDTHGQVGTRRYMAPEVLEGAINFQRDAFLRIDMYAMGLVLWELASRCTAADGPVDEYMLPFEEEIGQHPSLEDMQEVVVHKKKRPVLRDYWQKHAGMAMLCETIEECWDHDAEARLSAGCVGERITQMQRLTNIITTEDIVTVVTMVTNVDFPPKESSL
Chain of TNIK (Q9UKE5 whole entry): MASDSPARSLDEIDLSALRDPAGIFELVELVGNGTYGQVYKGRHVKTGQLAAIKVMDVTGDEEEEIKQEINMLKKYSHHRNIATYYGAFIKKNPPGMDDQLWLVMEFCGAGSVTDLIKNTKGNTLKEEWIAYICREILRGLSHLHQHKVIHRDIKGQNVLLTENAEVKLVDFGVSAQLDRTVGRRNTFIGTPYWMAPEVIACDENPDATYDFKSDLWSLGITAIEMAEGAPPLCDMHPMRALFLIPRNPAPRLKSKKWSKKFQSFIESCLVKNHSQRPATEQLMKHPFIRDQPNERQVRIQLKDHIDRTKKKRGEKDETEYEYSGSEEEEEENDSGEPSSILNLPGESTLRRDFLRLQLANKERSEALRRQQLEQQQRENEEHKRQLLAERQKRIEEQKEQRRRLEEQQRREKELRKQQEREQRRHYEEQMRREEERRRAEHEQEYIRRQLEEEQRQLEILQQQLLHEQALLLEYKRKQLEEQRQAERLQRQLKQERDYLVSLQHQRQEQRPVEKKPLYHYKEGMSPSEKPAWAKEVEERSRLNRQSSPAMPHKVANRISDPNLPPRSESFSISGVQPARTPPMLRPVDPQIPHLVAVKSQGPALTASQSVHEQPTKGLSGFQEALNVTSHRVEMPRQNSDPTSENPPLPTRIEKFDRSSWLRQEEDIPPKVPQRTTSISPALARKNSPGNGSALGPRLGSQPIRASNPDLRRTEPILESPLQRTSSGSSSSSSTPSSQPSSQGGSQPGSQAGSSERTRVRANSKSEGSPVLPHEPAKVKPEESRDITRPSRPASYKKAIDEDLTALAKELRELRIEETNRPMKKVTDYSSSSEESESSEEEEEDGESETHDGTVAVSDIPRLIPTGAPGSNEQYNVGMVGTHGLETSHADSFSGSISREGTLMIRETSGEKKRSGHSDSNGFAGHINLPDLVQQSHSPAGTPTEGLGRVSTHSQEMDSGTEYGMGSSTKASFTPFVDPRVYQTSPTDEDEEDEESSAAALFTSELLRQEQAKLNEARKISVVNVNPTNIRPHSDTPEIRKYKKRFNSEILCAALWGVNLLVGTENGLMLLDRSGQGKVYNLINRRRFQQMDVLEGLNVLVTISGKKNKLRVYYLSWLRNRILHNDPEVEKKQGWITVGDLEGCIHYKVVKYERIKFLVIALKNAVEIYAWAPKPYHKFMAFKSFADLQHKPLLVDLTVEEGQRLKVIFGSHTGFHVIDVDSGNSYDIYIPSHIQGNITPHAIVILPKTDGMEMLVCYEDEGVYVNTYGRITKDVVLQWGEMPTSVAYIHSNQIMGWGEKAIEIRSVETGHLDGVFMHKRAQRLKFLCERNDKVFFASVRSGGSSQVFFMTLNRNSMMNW
Chain of MYLK2 (skMLCK) (Q9H1R3 whole entry): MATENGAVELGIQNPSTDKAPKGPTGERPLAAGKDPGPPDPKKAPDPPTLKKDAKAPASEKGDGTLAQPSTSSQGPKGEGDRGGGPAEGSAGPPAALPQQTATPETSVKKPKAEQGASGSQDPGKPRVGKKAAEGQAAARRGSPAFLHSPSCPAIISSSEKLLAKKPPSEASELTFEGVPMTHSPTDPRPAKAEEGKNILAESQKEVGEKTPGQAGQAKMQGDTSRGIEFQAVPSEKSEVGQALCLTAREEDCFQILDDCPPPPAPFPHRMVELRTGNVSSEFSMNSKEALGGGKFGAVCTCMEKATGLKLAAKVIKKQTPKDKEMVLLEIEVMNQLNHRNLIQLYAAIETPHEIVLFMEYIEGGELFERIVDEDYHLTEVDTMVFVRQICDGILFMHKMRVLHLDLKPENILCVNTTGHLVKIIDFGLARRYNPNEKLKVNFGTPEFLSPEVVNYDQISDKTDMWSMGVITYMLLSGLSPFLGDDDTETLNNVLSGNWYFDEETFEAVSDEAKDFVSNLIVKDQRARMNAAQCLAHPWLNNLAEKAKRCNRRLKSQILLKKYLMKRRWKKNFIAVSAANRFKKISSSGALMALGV
Chain of CDK14 (PFTK1)/cyclin Y (O94921 whole entry): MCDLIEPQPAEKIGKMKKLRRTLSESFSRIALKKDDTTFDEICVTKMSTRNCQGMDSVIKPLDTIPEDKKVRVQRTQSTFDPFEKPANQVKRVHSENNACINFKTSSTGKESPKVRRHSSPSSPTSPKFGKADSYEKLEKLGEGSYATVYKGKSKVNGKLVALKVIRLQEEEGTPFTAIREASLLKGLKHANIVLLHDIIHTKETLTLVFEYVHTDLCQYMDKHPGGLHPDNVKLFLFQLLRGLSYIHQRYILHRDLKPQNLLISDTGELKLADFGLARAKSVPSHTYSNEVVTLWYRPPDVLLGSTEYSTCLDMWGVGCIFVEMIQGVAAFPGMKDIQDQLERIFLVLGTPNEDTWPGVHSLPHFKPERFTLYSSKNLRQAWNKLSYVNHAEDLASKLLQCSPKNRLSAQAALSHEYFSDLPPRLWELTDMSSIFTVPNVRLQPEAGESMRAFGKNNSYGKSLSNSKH
Chain of CDK14 (PFTK1)/cyclin Y (Q8ND76 whole entry partner): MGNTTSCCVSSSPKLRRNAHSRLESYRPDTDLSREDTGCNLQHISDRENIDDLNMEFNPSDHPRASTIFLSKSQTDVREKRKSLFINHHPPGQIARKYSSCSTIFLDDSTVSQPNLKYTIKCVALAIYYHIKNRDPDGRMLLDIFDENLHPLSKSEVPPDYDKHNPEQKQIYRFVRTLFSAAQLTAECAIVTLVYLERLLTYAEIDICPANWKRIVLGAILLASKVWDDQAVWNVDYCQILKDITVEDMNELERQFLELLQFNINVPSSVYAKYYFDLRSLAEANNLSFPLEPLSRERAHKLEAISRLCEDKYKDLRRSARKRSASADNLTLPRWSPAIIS
Chain of PRKCB1 (PKC beta I) (P05771 whole entry): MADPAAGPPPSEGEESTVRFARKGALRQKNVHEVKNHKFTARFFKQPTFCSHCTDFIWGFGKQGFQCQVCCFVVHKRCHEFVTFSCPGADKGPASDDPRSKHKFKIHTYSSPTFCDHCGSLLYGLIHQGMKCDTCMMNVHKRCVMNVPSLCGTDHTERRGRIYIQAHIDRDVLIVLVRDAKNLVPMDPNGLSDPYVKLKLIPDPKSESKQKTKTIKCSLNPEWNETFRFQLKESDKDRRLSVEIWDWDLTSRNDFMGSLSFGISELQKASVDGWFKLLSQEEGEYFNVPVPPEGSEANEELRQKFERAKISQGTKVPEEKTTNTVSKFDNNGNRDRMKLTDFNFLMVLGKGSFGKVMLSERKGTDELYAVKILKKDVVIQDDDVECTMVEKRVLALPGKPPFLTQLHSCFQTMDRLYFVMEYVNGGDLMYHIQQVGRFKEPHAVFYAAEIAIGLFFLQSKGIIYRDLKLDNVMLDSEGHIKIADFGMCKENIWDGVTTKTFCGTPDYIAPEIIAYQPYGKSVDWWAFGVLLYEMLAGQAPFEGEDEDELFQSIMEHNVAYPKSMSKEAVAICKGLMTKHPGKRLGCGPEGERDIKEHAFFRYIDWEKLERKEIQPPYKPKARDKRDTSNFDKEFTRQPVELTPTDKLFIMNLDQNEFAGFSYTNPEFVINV

With C#CCOc1ccc(Nc2ncc(Cl)c(Nc3ccccc3NC(=O)C=C)n2)c(OC)c1 [Compound 6] the “Inhibition (%)” value ([1]; 1 μM WEL028, 1 h preincubation) was -7%, the “Inhibition at 1 µM (%)” value ([1]; CDK14 (PFTK1)/cyclin Y, 1 µM, LanthaScreen Binding) was -14% and the inhibition at 1 µM [2, 13] was -3%. The “Inhibition at 1 µM (%)” value [2] was 2%, the “Inhibition at 1 µM (%)” value ([2]; listed as WEL028, 1 µM) was -8% and the inhibition at 1 µM [3, 13] was 4%. The “Inhibition at 1 µM (%)” value ([3]; AMPK A2/B1/G1, 1 µM, ZLYTE, ATP Km app) was -2%, the inhibition at 1 µM [4, 13] was 9% and the “Inhibition at 1 µM (%)” value ([4]; MLCK (MLCK2), 1 µM, LanthaScreen Binding, listed as WEL028, 1 µM) was 8%. The inhibition at 1 µM ([4]; read-out: Inhibition at 1 µM (%), MLCK (MLCK2), 1 µM, LanthaScreen Binding) was 9%, the inhibition at 1 µM [5, 13] was 7% and the “Inhibition at 1 µM (%)” value ([5]; NEK8, 1 µM, LanthaScreen Binding, listed as WEL028, 1 µM) was 2% and 12%. For the same molecule, the “Inhibition at 1 µM (%)” value ([6]; 1 µM, LanthaScreen Binding, listed as WEL028, 1 µM) was 4%, the inhibition at 1 µM [6, 13] was 5% and the inhibition at 1 µM ([6]; read-out: Inhibition at 1 µM (%), 1 µM, LanthaScreen Binding) was 6%. The inhibition at 1 µM [7, 13] was 5%, the “Inhibition at 1 µM (%)” value ([7]; ACVR2A, 1 µM, LanthaScreen Binding, listed as WEL028, 1 µM) was 6% and the inhibition at 1 µM ([7]; read-out: Inhibition at 1 µM (%), ACVR2A, 1 µM, LanthaScreen Binding) was 4%. For the same molecule, the inhibition at 1 µM [8, 13] was 1%, the “Inhibition at 1 µM (%)” value [8] was 2% and the “Inhibition at 1 µM (%)” value ([8]; listed as WEL028, 1 µM) was 0%. The inhibition at 1 µM [9] was 8%, the inhibition at 1 µM [10, 13] was 0% and the “Inhibition at 1 µM (%)” value ([10]; PIM3, 1 µM, ZLYTE, ATP Km app, listed as WEL028, 1 µM) was -1% and 1%. For the same molecule, the inhibition at 1 µM [11, 13] was 16%, the “Inhibition at 1 µM (%)” value ([11]; PRKCB1 (PKC beta I), 1 µM, ZLYTE, ATP Km app) was 25% and the Apparent fold selectivity [12] was 50 fold.
